Values of other authors as cited in patent US9533037B2, “Methods for designing and preparing vaccines comprising directed sequence polymer compositions via the directed expansion of epitopes” (Declion Holdings LLC, priority 2007, dated 2017).

Tested on: MBP83-99
Conditions: limited human trials

## AKPVVHLFANIVTPRTP
  immune reactivity against the peptide: long term immune reactivity
Multiple sclerosis
  clinical efficacy by evaluation using MRI: clinically ineffective
